The text below walks through data of patent US11136313B2, “Compounds, compositions, and methods for modulating CFTR” (Proteostasis Therapeutics, Inc., priority 2015, dated 2021).

The target in the assay is T1, ΔF508-CFTR (Homo sapiens, UniProt P13569, DEL508-508).
T1 construct: Primary lung epithelial cells homozygous for the Cystic Fibrosis-causing ΔF508 mutation were differentiated for a minimum of 4 weeks; endogenous in cells; host or cells: primary lung epithelial cells (hBE) homozygous for ΔF508, differentiated at an air-liquid interface
T1 sequence (P13569 with tags, fused parts or gaps DEL508-508): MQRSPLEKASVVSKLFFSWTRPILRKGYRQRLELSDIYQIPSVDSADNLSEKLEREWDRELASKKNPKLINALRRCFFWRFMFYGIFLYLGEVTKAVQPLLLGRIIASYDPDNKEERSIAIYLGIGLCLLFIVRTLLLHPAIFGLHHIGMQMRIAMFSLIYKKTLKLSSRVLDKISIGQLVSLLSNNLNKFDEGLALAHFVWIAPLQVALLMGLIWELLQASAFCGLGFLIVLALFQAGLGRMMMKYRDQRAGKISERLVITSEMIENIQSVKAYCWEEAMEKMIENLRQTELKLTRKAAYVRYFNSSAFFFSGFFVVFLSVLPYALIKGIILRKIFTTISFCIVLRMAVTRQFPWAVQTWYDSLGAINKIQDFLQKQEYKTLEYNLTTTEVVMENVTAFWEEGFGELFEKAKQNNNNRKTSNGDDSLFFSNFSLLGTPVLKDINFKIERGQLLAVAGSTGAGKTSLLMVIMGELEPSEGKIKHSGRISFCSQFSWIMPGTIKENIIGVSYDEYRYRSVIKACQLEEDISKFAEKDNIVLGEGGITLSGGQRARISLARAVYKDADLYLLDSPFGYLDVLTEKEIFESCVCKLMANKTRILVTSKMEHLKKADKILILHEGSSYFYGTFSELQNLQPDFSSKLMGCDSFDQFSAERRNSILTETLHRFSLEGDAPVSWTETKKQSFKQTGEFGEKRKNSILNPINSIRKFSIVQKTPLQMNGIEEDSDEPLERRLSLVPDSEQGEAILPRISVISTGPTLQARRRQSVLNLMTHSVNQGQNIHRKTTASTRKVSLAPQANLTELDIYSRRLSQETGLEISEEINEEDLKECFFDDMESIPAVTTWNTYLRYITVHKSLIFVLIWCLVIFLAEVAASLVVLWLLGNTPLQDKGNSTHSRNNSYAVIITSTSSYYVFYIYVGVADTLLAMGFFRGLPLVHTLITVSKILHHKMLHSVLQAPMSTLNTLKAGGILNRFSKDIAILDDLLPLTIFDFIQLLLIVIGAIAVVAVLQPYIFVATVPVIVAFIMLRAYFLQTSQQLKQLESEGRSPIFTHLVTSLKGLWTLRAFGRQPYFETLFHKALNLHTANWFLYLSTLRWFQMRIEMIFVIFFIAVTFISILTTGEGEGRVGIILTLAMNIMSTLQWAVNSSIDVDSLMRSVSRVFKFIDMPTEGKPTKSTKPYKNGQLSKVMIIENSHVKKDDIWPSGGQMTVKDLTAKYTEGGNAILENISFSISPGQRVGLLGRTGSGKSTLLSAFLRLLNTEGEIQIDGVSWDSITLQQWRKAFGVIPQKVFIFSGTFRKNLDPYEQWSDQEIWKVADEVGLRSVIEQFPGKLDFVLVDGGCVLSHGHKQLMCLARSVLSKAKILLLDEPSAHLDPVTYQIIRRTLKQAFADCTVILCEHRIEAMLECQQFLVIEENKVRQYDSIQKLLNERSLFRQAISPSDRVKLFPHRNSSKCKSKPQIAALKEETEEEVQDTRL
As to the kind of experiment: hBE equivalent current (Ieq) assay: AUC of equivalent chloride current after forskolin/VX-770 in primary lung epithelial cells homozygous for ΔF508. Type of assay: cell-based. The note with it: relative to CFTR amplifier (Compound A)+VX-809 (3 uM), compound at 10 uM and Compound A at 3 uM, 24 h treatment. The method in brief: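 Readout is the increase over vehicle in equivalent chloride current AUC from forskolin/VX-770 addition to bumetanide, measured by current clamp at 36 °C after benzamil block of ENaC. Cultures were homozygous ΔF508 primary lung epithelium grown ≥4 weeks at air-liquid interface and exposed basolaterally to compound for 24 h.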
As for `Cc1c(-c2cc(-c3noc(O)n3)c3c(OC(C)c4ccccc4)ccc(C)c3n2)oc2ccccc12` (stereo not shown) [Compound 361], the Activity result is “++ (activity>50% of CFTR amplifier+VX-809 (3 uM) with compound at 10 uM and Compound A at 3 uM)”.

Consider `Cc1c(-c2cc(C(=O)O)c3c(O[C@H]4CC[C@H](c5ncco5)CC4)ccc(C)c3n2)oc2ccccc12` [Compound 197], for which the Activity entry was “++ (activity>50% of CFTR amplifier+VX-809 (3 uM) with compound at 10 uM and Compound A at 3 uM)”.

For the compound `Cc1c(-c2cc(C(=O)[O-])c3c(O[C@H]4C[C@@H](c5ccccc5)C4)ccc(C)c3n2)oc2ccccc12.[Na+]` [Compound 282, Sodium 8-Methyl-2-(3-methyl-1-benzofuran-2-yl)-5-[(1s,3s)-3-phenylcyclobutoxy]quinoline-4-carboxylate], the Activity entry was “++ (activity>50% of CFTR amplifier+VX-809 (3 uM) with compound at 10 uM and Compound A at 3 uM)”.

Consider `Cc1c(-c2cc(C(=O)[O-])c3c(O[C@@H](CCO)c4ccccc4)ccc(C)c3n2)sc2ccccc12.[Na+]` [Compound 310], for which the Activity result was “++ (activity>50% of CFTR amplifier+VX-809 (3 uM) with compound at 10 uM and Compound A at 3 uM)”.

For `Cc1cc(C)c2nc(-c3oc4ccccc4c3C)cc(C(=O)O)c2c1` [Compound 9, 6,8-dimethyl-2-(3-methyl-1-benzofuran-2-yl)quinoline-4-carboxylic acid], the Activity entry was “++ (activity>50% of CFTR amplifier+VX-809 (3 uM) with compound at 10 uM and Compound A at 3 uM)”.

Take `Cc1c(-c2cc(C(=O)[O-])c3c(OCc4ccc(F)cc4)ccc(C)c3n2)sc2ccccc12.[Na+]` [Compound 291, Sodium 5-[(4-Fluorophenyl)methoxy]-8-methyl-2-(3-methyl-1-benzothiophen-2-yl)quinoline-4-carboxylate]: the Activity result was “++ (activity>50% of CFTR amplifier+VX-809 (3 uM) with compound at 10 uM and Compound A at 3 uM)”.

As to `Cc1c(-c2cc(C(=O)O)c3c(OCc4ccccc4)ccc(C(C)C)c3n2)oc2ccccc12` [Compound 109, 5-(Benzyloxy)-2-(3-methyl-1-benzofuran-2-yl)-8-(propan-2-yl)quinoline-4-carboxylic acid], the Activity entry is “++ (activity>50% of CFTR amplifier+VX-809 (3 uM) with compound at 10 uM and Compound A at 3 uM)”.

For `Cc1c(-c2cc(C(=O)O)c3c(C)ccc(C)c3n2)oc2ccccc12` [Compound 31, 5,8-Dimethyl-2-(3-methyl-1-benzofuran-2-yl)quinoline-4-carboxylic acid], the Activity entry is “++ (activity>50% of CFTR amplifier+VX-809 (3 uM) with compound at 10 uM and Compound A at 3 uM)”.

In the case of `Cc1c(-c2cc(C(=O)[O-])c3c(OC4CC5(COC5)C4)ccc(C)c3n2)oc2ccccc12.[Na+]` [Compound 369], the Activity entry was “++ (activity>50% of CFTR amplifier+VX-809 (3 uM) with compound at 10 uM and Compound A at 3 uM)”.

With `Cc1c(-c2cc(C(=O)[O-])c3c(O[C@@H](C)c4ccc(S(C)(=O)=O)cc4)ccc(C)c3n2)sc2ccccc12.[Na+]` [Compound 266], the Activity entry was “++ (activity>50% of CFTR amplifier+VX-809 (3 uM) with compound at 10 uM and Compound A at 3 uM)”.

Regarding `Cc1c(-c2cc(C(=O)O)c3c(OC4CCC(c5nnco5)CC4)ccc(C)c3n2)oc2ccccc12` (stereo not shown) [Compound 97, 8-Methyl-2-(3-methyl-1-benzofuran-2-yl)-5-[[4-(1,3,4-oxadiazol-2-yl)cyclohexyl]oxy]quinoline-4-carboxylic acid], the Activity result was “++ (activity>50% of CFTR amplifier+VX-809 (3 uM) with compound at 10 uM and Compound A at 3 uM)”.

With `Cc1cc2c(C(=O)O)cc(-c3oc4ccccc4c3C)nc2cc1OCc1ccccc1` [Compound 41, 7-(Benzyloxy)-6-methyl-2-(3-methyl-1-benzofuran-2-yl)quinoline-4-carboxylic acid], the Activity entry was “+ (activity<50% of an CFTR amplifier (Compound A)+VX-809 (3 uM) with compound at 10 uM and Compound A at 3 uM)”.

As for `COc1cc(C)c2nc(-c3oc4ccccc4c3C)cc(C(=O)O)c2c1` [Compound 23, 6-Methoxy-8-methyl-2-(3-methyl-1-benzofuran-2-yl)quinoline-4-carboxylic acid], the Activity result was “++ (activity>50% of CFTR amplifier+VX-809 (3 uM) with compound at 10 uM and Compound A at 3 uM)”.

In the case of `Cc1c(-c2cc(C(=O)[O-])c3c(OCC4CC(C)(C)OC(C)(C)C4)ccc(C)c3n2)sc2ccccc12.[Na+]` [Compound 337], the Activity entry was “++ (activity>50% of CFTR amplifier+VX-809 (3 uM) with compound at 10 uM and Compound A at 3 uM)”.

As for `Cc1c(-c2cc(C(=O)O)c3c(C)ccc(C)c3n2)oc2c(F)cccc12` [Compound 130, 2-(7-Fluoro-3-methyl-1-benzofuran-2-yl)-5,8-dimethylquinoline-4-carboxylic acid], the Activity entry was “+ (activity<50% of an CFTR amplifier (Compound A)+VX-809 (3 uM) with compound at 10 uM and Compound A at 3 uM)”.

As for `Cc1c(-c2cc(C(=O)[O-])c3c(O[C@@H](C)c4ccccc4)ccc(C)c3n2)oc2ccccc12.[Na+]` [Compound 213], the Activity result was “++ (activity>50% of CFTR amplifier+VX-809 (3 uM) with compound at 10 uM and Compound A at 3 uM)”.

As for `CCc1ccc(OC2CCCCC2)c2c(C(=O)O)cc(-c3coc4ccccc34)nc12` [Compound 170, 2-(1-Benzofuran-3-yl)-5-(cyclohexyloxy)-8-ethylquinoline-4-carboxylic acid], the Activity entry is “++ (activity>50% of CFTR amplifier+VX-809 (3 uM) with compound at 10 uM and Compound A at 3 uM)”.

Turning to `Cc1c(-c2cc(C(=O)O)c3cc(OC(F)(F)F)cc(C)c3n2)oc2ccccc12` [Compound 117, 8-Methyl-2-(3-methyl-1-benzofuran-2-yl)-6-(trifluoromethoxy)quinoline-4-carboxylic acid], the Activity result was “++ (activity>50% of CFTR amplifier+VX-809 (3 uM) with compound at 10 uM and Compound A at 3 uM)”.

With `Cc1c(-c2cc(C(=O)[O-])c3c(O[C@H](C)c4ccc(C#N)cc4)ccc(C)c3n2)oc2ccccc12.[Na+]` [Compound 233], the Activity entry was “++ (activity>50% of CFTR amplifier+VX-809 (3 uM) with compound at 10 uM and Compound A at 3 uM)”.

On to `Cc1c(-c2cc(C(=O)[O-])c3c(OC4CC(C)(C)OC(C)(C)C4)ccc(C)c3n2)oc2ccccc12.[Na+]` [Compound 334], for which the Activity result is “++ (activity>50% of CFTR amplifier+VX-809 (3 uM) with compound at 10 uM and Compound A at 3 uM)”.

As to `Cc1c(-c2cc(C(=O)[O-])c3c(O[C@H]4CCC[C@H](c5ccccc5)C4)ccc(C)c3n2)oc2ccccc12.[Na+]` [Compound 302], the Activity entry is “++ (activity>50% of CFTR amplifier+VX-809 (3 uM) with compound at 10 uM and Compound A at 3 uM)”.

As for `Cc1c(-c2cc(C(=O)O)c3cc(OCCO)cc(C)c3n2)oc2ccccc12` [Compound 25, 6-(2-Hydroxyethoxy)-8-methyl-2-(3-methyl-1-benzofuran-2-yl)quinoline-4-carboxylic Acid], the Activity entry is “+ (activity<50% of an CFTR amplifier (Compound A)+VX-809 (3 uM) with compound at 10 uM and Compound A at 3 uM)”.

Take `Cc1c(-c2cc(C(=O)O)c3c(OCc4ccccc4)ccc(Cl)c3n2)oc2ccccc12` [Compound 111, 5-(Benzyloxy)-8-chloro-2-(3-methyl-1-benzofuran-2-yl)quinoline-4-carboxylic acid]: the Activity result was “+ (activity<50% of an CFTR amplifier (Compound A)+VX-809 (3 uM) with compound at 10 uM and Compound A at 3 uM)”.

On to `Cc1c(-c2cc(C(=O)[O-])c3c(OC[C@H]4CC[C@](C)(O)CC4)ccc(C)c3n2)oc2ccccc12.[Na+]` [Compound 377], for which the Activity result was “++ (activity>50% of CFTR amplifier+VX-809 (3 uM) with compound at 10 uM and Compound A at 3 uM)”.

On to `Cc1c(-c2cc(C(=O)O)c3c(OCc4ccccc4)ccc(C4CC4)c3n2)oc2ccccc12` [Compound 107, 5-(Benzyloxy)-8-cyclopropyl-2-(3-methyl-1-benzofuran-2-yl)quinoline-4-carboxylic acid], for which the Activity result was “++ (activity>50% of CFTR amplifier+VX-809 (3 uM) with compound at 10 uM and Compound A at 3 uM)”.

Turning to `Cc1c(-c2cc(C(=O)[O-])c3c(OC[C@H]4C[C@@](C)(O)C4)ccc(C)c3n2)oc2ccccc12.[Na+]` [Compound 374], the Activity result was “++ (activity>50% of CFTR amplifier+VX-809 (3 uM) with compound at 10 uM and Compound A at 3 uM)”.

In the case of `Cc1c(-c2nc(C(=O)O)c3c(OCc4ccccc4)ccc(C)c3n2)oc2ccccc12` [Compound 101, 5-(Benzyloxy)-8-methyl-2-(3-methyl-1-benzofuran-2-yl)quinazoline-4-carboxylic Acid], the Activity result is “++ (activity>50% of CFTR amplifier+VX-809 (3 uM) with compound at 10 uM and Compound A at 3 uM)”.

As for `Cc1c(-c2cc(C(=O)[O-])c3c(OCC4COC4)ccc(C)c3n2)oc2ccccc12.[Na+]` [Compound 343], the Activity entry was “++ (activity>50% of CFTR amplifier+VX-809 (3 uM) with compound at 10 uM and Compound A at 3 uM)”.

On to `COC[C@H](Oc1ccc(C)c2nc(-c3sc4ccccc4c3C)cc(C(=O)[O-])c12)c1ccccc1.[Na+]` [Compound 308], for which the Activity result is “++ (activity>50% of CFTR amplifier+VX-809 (3 uM) with compound at 10 uM and Compound A at 3 uM)”.

Turning to `Cc1c(-c2cc(C(=O)O)c3c(OCC(F)F)ccc(C)c3n2)oc2ccccc12` [Compound 122, 5-(2,2-Difluoroethoxy)-8-methyl-2-(3-methyl-1-benzofuran-2-yl)quinoline-4-carboxylic acid], the Activity entry was “++ (activity>50% of CFTR amplifier+VX-809 (3 uM) with compound at 10 uM and Compound A at 3 uM)”.

Turning to `Cc1c(-c2cc(C(=O)O)c3c(OCc4cccnc4)ccc(C)c3n2)oc2ccccc12` [Compound 114, 8-Methyl-2-(3-methyl-1-benzofuran-2-yl)-5-(pyridin-3-ylmethoxy)quinoline-4-carboxylic acid], the Activity entry was “+ (activity<50% of an CFTR amplifier (Compound A)+VX-809 (3 uM) with compound at 10 uM and Compound A at 3 uM)”.
